Measurements from patent US20130115133A1, “INACTIVATION OF MICROORGANISMS WITH MULTIDRUG RESISTANCE INHIBITORS AND PHENOTHIAZINIUMS” (priority 2004, published 2013).
Like-named read-outs stand apart in the source and are kept apart here. Non-standard residues stand in square brackets, D forms with d. Residues, ends and D or L forms follow the SMILES beside them. ξ: configuration not given here. *: point of attachment. ξR = N=C(N)NCCCC(N)C(=O)O; βNA = c1ccc2cc(N*)ccc2c1

Tests used:
[1] = system: S. aureus NorA-, wild type, and NorA+; assay: Photodynamic inactivation (PDI), light-dose dependent phototoxicity; type: cell-based, Staphylococcus aureus; details: 10 μM; for light dose by which strain is eliminated: NorA knockout strain, 635-nm light 100 mWcm^-2; for light dose by which strain is eliminated / logs of killing: 30 min; for logs less killing than wild-type: NorA overexpression strain, 635-nm light; for overall order of efficiency of killing: S. aureus NorA strains; for logs less killing compared to wild-type: NorA overexpressing strain; for logs of killing: wild-type strain
Experimental: (§1) A polylysine-chlorine6 conjugate (pL-ce6), and Rose Bengal (RB) (Sigma-Aldrich) were used as non-phenothiazinium-based PS (FIG. 3). Stock solutions were prepared in water at a concentration of 2-mM and stored for a maximum of 2 weeks at 4° C. in the dark before use. Spectra of stock solutions diluted 140-280 fold in methanol were recorded on an UV-visible spectroscopy system (Waldbronn, Germany). A non-coherent light source with interchangeable fiber bundles (LC122, LumaCare, London, UK) was employed. Thirty-nm band pass filters at ranges 540±15 nm for RB, 635±15 nm for TBO, and DMMB, and 660±15 nm for MB and pLce6 were used. The total power output provided out of the fiber bundle ranged from 300-700 mW. The spot was arranged to give an irradiance of 100 mW/cm^2.
(§2) Bacterial suspensions in PBS (initial concentration 10^8 cells mL^−1) were incubated with PS in the dark at room temperature for 30 minutes at concentrations varying from 1-μM to 300-μM. The cell suspensions were centrifuged at 12000 rpm and then washed twice with sterile PBS. The bacterial suspensions were placed in wells of 96 well micro titer plates (Fisher Scientific) and illuminated with appropriate light at room temperature. Fluences ranged from 0 to 20 Jcm^−2 at a fluence rate of 100 mWcm^−2. During illumination, aliquots of […] were taken to determine the colony-forming units. The contents of the wells were mixed before sampling. The aliquots were serially diluted 10-fold in PBS to give dilutions of 10^−1-10^−6 times the original concentrations and were streaked horizontally on square BHI agar plates as described by Jett et al (1997). This allowed a maximum of seven logs of killing to be measured. Plates were incubated at 37° C. overnight. Two types of control conditions were used: illumination in the absence of photosensitizer and incubation with photosensitizer in the dark.
The three isogenic strains of S. aureus were incubated with 10 μM MB for 30 minutes and then washed free of unbound dye by centrifugation and resuspension in PBS and illuminated with 100 mWcm^−2 660-nm light, and the survival fractions determined as described above.
To establish the recognition of phenothiazinium dyes as a class by NorA, the experiments described in FIG. 4 were repeated with the phenothiazinium compounds TBO and DMMB. Incubation with the photosensitizer was for 30 min followed by a wash. Bacteria were then illuminated with 100 mWcm^−2 635-nm light for both TBO and DMMB. The results shown in FIGS. 7a and 7b show a similar pattern to the susceptibilities as was found for MB. The NorA knockout strain is eliminated by 1 J/cm2 in the case of TBO and by 0.5 J/cm2 in the case of DMMB. […]

[2] = system: P. aeruginosa MexAB-, wild type and MexAB+; type: cell-based, Pseudomonas aeruginosa; details: wild-type strain; 300 μM; after 20 J/cm2
Experimental: A polylysine-chlorine6 conjugate (pL-ce6), and Rose Bengal (RB) (Sigma-Aldrich) were used as non-phenothiazinium-based PS (FIG. 3). Stock solutions were prepared in water at a concentration of 2-mM and stored for a maximum of 2 weeks at 4° C. in the dark before use. Spectra of stock solutions diluted 140-280 fold in methanol were recorded on an UV-visible spectroscopy system (Waldbronn, Germany). A non-coherent light source with interchangeable fiber bundles (LC122, LumaCare, London, UK) was employed. […] The total power output provided out of the fiber bundle ranged from 300-700 mW. The spot was arranged to give an irradiance of 100 mW/cm^2.
Bacterial suspensions in PBS (initial concentration 10^8 cells mL^−1) were incubated with PS in the dark at room temperature for 30 minutes at concentrations varying from 1-μM to 300-μM. The cell suspensions were centrifuged at 12000 rpm and then washed twice with sterile PBS. The bacterial suspensions were placed in wells of 96 well micro titer plates (Fisher Scientific) and illuminated with appropriate light at room temperature. Fluences ranged from 0 to 20 Jcm^−2 at a fluence rate of 100 mWcm^−2. During illumination, aliquots of 10 were taken to determine the colony-forming units. The contents of the wells were mixed before sampling. […] This allowed a maximum of seven logs of killing to be measured. […]

[3] = system: E. coli wild type and TolC-; type: cell-based, Escherichia coli
Experimental: as §1, §2
It was necessary to use higher overall PDI doses to kill the Gram-negative E. coli compared to the Gram-positive S. aureus. A concentration of MB of 50 μM was selected with the same 30-minute incubation and wash by centrifugation, together with light doses up to 20 J/cm^2.

[4] = system: P. aeruginosa PAO1; type: cell-based, Pseudomonas aeruginosa; details: inhibitor 10 ug/ml with TBO 250 μM, 30 min, wash; 660-nm light 100 mWcm^-2

With `Cc1cc(N(C)C)cc2[s+]c3cc(N(C)C)cc(C)c3nc12` [DMMB, 1,9-dimethylmethylene blue] the “light dose by which strain is eliminated” value ([1]; wash) was ≤ 0.5 J/cm2, the “logs less killing than wild-type” value [1] was “roughly 2 logs” and the “overall order of efficiency of killing” value [1] was “DMMB>TBO>MB”.

For `CN(C)c1ccc2nc3ccc(=[N+](C)C)cc-3sc2c1` [MB, methylene blue], the logs of killing [2] was 5 logs, the “logs more killing than wild-type” value ([3]; TolC knock-out mutant, 50 μM, 30 min, wash, at 5 J/cm^2) was 2 logs and the “logs more killing than wild-type” value ([3]; TolC knock-out mutant, 50 μM, at 10 J/cm^2) was “three”. For the same molecule, the killing ([3]; TolC knock-out mutant, 50 μM, light doses higher than 10 J/cm^2 (up to 20 J/cm^2)) was “totally eliminated”, the killing ([3]; TolC knock-out, 250 μM, after 20 J/cm^2 (data not shown)) was “totally eliminated” and the killing ([3]; wild-type, 250 μM, after 20 J/cm^2 (data not shown)) was “totally eliminated”. For the same molecule, the killing ([1]; NorA knock-out, 660-nm light, after 1 J/cm^2) was “complete killing”, the “logs less killing compared to wild-type” value ([1]; 660-nm light, at 1 J/cm^2) was 1 log and the “logs less killing compared to wild-type” value ([1]; 660-nm light, at 2 J/cm^2) was 2 logs. The “logs less killing compared to wild-type” value ([1]; 660-nm light, at 4 J/cm^2) was 3 logs, the logs of killing ([1]; wash, 660-nm light 100 mWcm^-2, after 1 J/cm^2) was 3 logs and the logs of killing ([1]; wash, 660-nm light, after 2 J/cm^2) was 5 logs. The logs of killing ([1]; wash, 660-nm light, after 4 J/cm^2) was 7 logs.

Work on `NC(N)=NCCCC(NC(=O)[C@@H](N)Cc1ccccc1)C(=O)Nc1ccc2ccccc2c1` (stereo partly drawn) [MC207110] (H-Phe-[ξR]-βNA) yielded a logs of killing [4] of 5 logs.

In the case of `O=C1OC2(c3cc(I)c(O)c(I)c3Oc3c2cc(I)c(O)c3I)c2c(Cl)c(Cl)c(Cl)c(Cl)c21` [RB, Rose Bengal], the “differences in killing between the three NorA phenotypes” value ([1]; wash, 540-nm light 100 mWcm^-2) is reported as “no differences in killing”.

`Cc1cc2nc3ccc(N(C)C)cc3[s+]c2cc1N.[Cl-]` [TBO, Toluidine blue O] was tested, and the “light dose by which strain is eliminated” value ([1]; wash) was ≤ 1 J/cm2, the “logs less killing than wild-type” value [1] was “roughly 2 logs” and the “overall order of efficiency of killing” value [1] was “DMMB>TBO>MB”.
